From patent publication US20240299393A1, “SMALL MOLECULE DISRUPTORS OF PROTEIN INTERACTIONS IN HISTONE DEACETYLASE COMPLEXES” (Dana-Farber Cancer Institute, Inc., priority 2021, published 2024)

Legend:
[1] = test system: Rpd3-regulated genes (URS-URA3, INO1, IME2, CAR1, SPO13, TRK2); experiment: RT-qPCR of Rpd3-regulated genes in yeast; format: cell-based, S. cerevisiae; conditions: for derepression of URS-URA3 in deletion strains: rpd3Δ, sin3Δ, ume6Δ, sin3Δ/ume6Δ
Procedure: After yeast cells reached OD600 nm ˜0.5 in 0.8-1 mL of YPD, they were grown for two more hours at room temperature before being centrifuged to remove supernatant and freezing pellets on dry ice. For compound treatments, yeast cells at OD600 nm˜0.5 in YPD were incubated at room temperature for two hours with DMSO (1-1.6%) or the desired compound (from 25 mM stock in 100% DMSO) in an 2 mL-tube for a final volume of 0.8 mL in YPD, before being centrifuged, washed and frozen as described above. Yeast cells were then harvested for RNA extraction using a RiboPure RNA Purification Kit (Invitrogen, cat #AM1926), which involves mechanical cell wall disruption, phenol extraction of the lysate, and RNA purification using glass fiber, and filter-based RNA purification columns. RNA concentration was measured for individually purified RNA samples using a NanoDrop spectrophotometer. A total of 1 μg RNA from each sample was used for reverse transcription following a published procedure [Choi, S. G. et al 2012].
(§1) The RT-qPCR protocol used in this study was described elsewhere [Choi et al 2012]. Culture, RNA extraction, and compound treatments for neuroblastoma SK-N-BE(2)-C cells are described below. Approximately 1 μg RNA per sample was used for reverse transcription. Using a thermocycler, RNA was denatured in the presence of 0.2 μg 18 mer oligo-dT by heating the plate at 65° C. for 10 min. The plate was then immediately cooled down on ice to anneal oligo-dT on the poly-A tail of mRNA. A master mix of AffinityScript Multiple Temperature Reverses Transcriptase (Agilent, cat #600107) was prepared following the manufacturer's protocol, and mixed with RNA samples previously annealed with the oligo-dT. The plate was incubated at 42° C. for 2 h to generate cDNAs from mRNA templates. The reverse transcriptase was then denatured by heating the plate at 70° C. for 15 min. The resulting cDNA was diluted (1:20) in sterile, ultra pure water (ddH2O), and stored at −20° C. until used for qPCR. To measure gene expression, the diluted cDNA was mixed with 5 μL PowerUp SYBR Green master mix (Applied Biosystems, cat #A25743), and the mix of primers (forward+reverse, see FIG. 31; 0.3 μM final concentration) for a total volume of 10 μL. Two technical replicates were generated per cDNA sample in the 384-well PCR plate (Applied Biosystems, cat #4343370). The plate was tightly sealed with optical adhesive film (Applied Biosystems, cat #4311971). Quantitative PCR was conducted with a QuantStudio real-time PCR system from Applied Biosystems, with the following settings: 50° C./2 min, 95° C./10 min, 96° C./15 s/40 cycles, and 60° C./30 s. Dissociation curves were checked for each PCR product, to assess the specificity of the PCR amplicons.
Expression of gene X normalized to the control gene expression=k*1.96^(Ct^Control^−Ct^Test^) • where k is an arbitrary multiplier (k=1000 in this study), 1.96 is the PCR amplification efficiency constant, Ct is the cycle threshold, CtControl is the Ct value for the housekeeping gene used as control (UBC6 in yeast [Teste et al 2009]; RPS11 in human cells [Zhan et al 2014], and CtTest is the Ct value for the tested gene. Replicates corresponding to DMSO treatments or WT yeast cells were averaged and other data points normalized using those DMSO or WT values as references (i.e. expression relative to DMSO or WT). TAF10 in yeast or SNRPD3 in human cells were used as genes not known for being regulated by an HDAC complex (HDAC-unrelated genes).

[2] = test system: CDKN1A, SOCS3, EGR1 in SK-N-BE(2)-C cells; experiment: RT-qPCR of SIN3 HDAC complex-regulated genes in neuroblastoma cells; format: cell-based, human; conditions: 100 μM for 16 h
Procedure: as §1
SK-N-BE(2)-C cells were maintained in cell culture flasks supplemented with 10% Fetal bovine serum (FBS) and penicillin/streptomycin (PS) in Dulbecco's Modified Eagle's Medium (DMEM). The cells were maintained at a log phase in a humidified 5% CO2 incubator at 37° C. For testing the effect of the compounds on gene expression, approximately 0.1 million cells were seeded on each well of 24-well cell culture plates, with 1 mL 10% FBS+PS+DMEM. 24 h after seeding the cells, they were exposed to the compounds or DMSO control for 16 h in a humidified 5% CO2 incubator at 37° C., before harvesting them.
Cells were harvested for RNA extraction using Nucleospin 96 RNA (Macherey-Nagel, cat #740709.4) following manufacturer's protocol. Briefly, supernatant was removed, and the cells were gently washed with 1× phosphate-buffered saline. 300 μL lysis buffer were added to each well of 24 well cell culture plates. Roughly 0.1 million cells were used for harvesting each RNA sample. RNA concentration was measured for all purified RNA samples using a nanodrop spectrophotometer.

[3] = test system: SK-N-BE(2)-C neuroblastoma cells; experiment: Matrigel cell invasion assay; format: cell-based, human; conditions: FIG. 39A
Procedure: SK-N-BE(2)C neuroblastoma cells were seeded at 5×10^4 cells per well density in a 24-well plate. Cells were treated for five days with compounds or with DMSO control in Dulbecco's Modified Eagle Medium containing 10% fetal bovine serum, penicillin and streptomycin, in quadruplicate. On Day five, cells were changed to serum-free medium with the same compound concentrations as during the 5-day treatment, and 50,000 cells were seeded on top of a Corning BioCoat Matrigel Invasion Chamber (cat #354480). Medium with 20% FBS was added as chemoattractant to the bottom of the well. Invasion assay was performed per manufacturer instructions. After 48 h, non-invading cells were removed by scrubbing with a cotton tip swab. Cells that remained inside the matrix were stained with 1% crystal violet dye and counted by eye. Percentage of invasive cells was calculated relative to DMSO control.

[4] = test system: Rpd3-sensitive acid phosphatase activity; experiment: Yeast acid phosphatase plate assay; format: cell-based, S. cerevisiae; conditions: phosphate-rich (high Pi) medium
Procedure: The acid phosphatase plate assay was implemented as previously described [To et al 1973, Loewith et al 2001], with minor modifications. Cells were grown on high Pi medium (see above) for 2 days, at 30° C. A staining solution containing 2 mg/mL of 1-naphtyl phosphate (Sigma, N5602) and 4 mg/mL fast blue B salt (Sigma, D9805) was then prepared in 50 mM sodium acetate buffer pH 4.0±0.1, and maintained at 50° C. for ˜30 min before being filtered. Meanwhile, a solution of 10 mg/mL (1% weight/volume) ultra pure low melting point (LMP) agarose (Invitrogen, 15517-022) was prepared in 50 mM sodium acetate buffer pH 4.0±0.1, by microwaving the suspension until complete dissolution of the powder. The volume of the agarose solution was checked and readjusted with 50 mM sodium acetate buffer pH 4.0±0.1. The agarose solution was then mixed with the filtered staining solution by vortexing briefly, and the resulting suspension was kept at 50° C. for ˜15 min. The solid agar plate on which cells grew for 2 days were then gently overlaid with the agarose-containing staining solution, allowing its gelification on top of the cells. A red coloring started to appear ˜2 min after covering cells with the solution.

Row | SMILES | expression at URS-URA3 compared to E6S ([1]; different doses) | effect on expression of CDKN1A, SOCS3 and EGR1 [2] | migration of neuroblastoma cells in the invasion assay [3] | increase of INO1 expression ([1]; 250 μM, relative to DMSO) [fold] | derepression of URS-URA3 in deletion strains ([1]; 250 μM) | Rpd3-sensitive acid phosphatase activity [4] | effect on CAR1 and SPO13 expression ([1]; 250 μM) | effect on all Rpd3-regulated loci ([1]; FIG. 3I)
1 | C[C@@H](NC(=O)c1c(O)n2ccccc2nc1=O)c1ccccc1 [E6R, 4-hydroxy-2-oxo-N—((R)-1-phenylethyl)-3,4-dihydro-2H-pyrido[, 2-a]pyrimidine-3-carboxamide] | stronger induction of expression at URS-URA3 | only perturbed expression of two of the tested downstream genes | significantly reduce |  |  |  |  | 
2 | CC(NC(=O)c1c(O)n2ccccc2nc1=O)c1ccccc1 (racemic) [E6] |  |  |  | ~150 | drastically decreased | opposite behavior |  | 
3 | CC(/C=C/C(=O)NO)=C\[C@@H](C)C(=O)c1ccc(N(C)C)cc1 [TSA, trichostatin A] |  | derepressed | significantly reduce |  | no effect | induced | consistently derepressed | activated all Rpd3-regulated loci
